Here are results for two molecules from patent publication US20080287525A1, “Pharmaceuticals for treating or preventing oral diseases” (HAWLEY & HAZEL (BVI) COMPANY LIMITED, priority 2007, published 2008).

For experiment [1], the system named is Actinobacilus actinomycetemcomitans (A. a) ATCC 43717. As to the kind of experiment: Micro-dilution MIC test, A. a. The experiment is classed as cell-based. The note with it: 37 °C, 18-24 h, unit not given, method gives concentrations in mg/L (ppm). The method, then:
(§1) A single colony was picked from the Trypticase Digested Soybean peptone agar blood plate (TSA5B) of ordinarily stored bacteria species and used to inoculate corresponding broth culture medium, which was cultivated in a microaerobic environment (P.g needs anaerobic cultivation) with 95% air, 5% CO2 at 37.0° C.±1.0° C., wherein S.m and S.sa were cultivated for 18-24 h, and the remaining five species were cultivated for 40-48 h. Then corresponding broth cultivate medium was used to adjust the turbidity of the bacteria suspension to 0.5 McFarland standard, equivalent to 1.0×10^8 CFU/mL.
(§2) The operating steps were:
(§3) a. Preparation of the stock solution of antibacterial pharmaceutical: 1% stock solution of various antibacterial pharmaceuticals was prepared with 100% pure ethanol as solvent. The prepared stock solution was filtered to eliminate bacteria, and was distributed into small portions to be used.
(§4) b. Range of measured concentration: the present experiment used 250 ppm as the ceiling measured concentration of the anti-bacterial pharmaceutical.
(§5) c. Measuring method: micro-dilution method. […]
(§6) The bacteria to be tested and standard bacteria were prepared using the same method as above. […] 0.12 mg/L, and the final inoculation quantity was about […] or 5×10^6 bacteria in each well. […]
(In general: Broth dilution looks for growth in wells or tubes with falling amounts of substance.)

The test system of another experiment is IL-6. Description: Anti-inflammatory test in KB cells, LUMINEX, IL-6. The experiment is classed as cell-based, human. The following applies: KB cell supernatant, the larger the value, the stronger the anti-inflammatory ability. On the procedure: (§7) Anti-inflammatory activity was assessed using the KB cell (the epidermis cancer cell in human oral cavity). During the experiment, the KB cell inoculated in the cultivating plate was treated with or without positive control or Mulberrofuran G. After the treatment, the supernatant of the cultivating medium was collected and stored in −80° C. refrigerator. Inflammation was assessed by measuring several inflammation markers: Prostaglandin E2 (PGE2) in the supernatant was detected by Enzyme-linked immunsorbent assay, and LUMINEX™ multifunctional liquid-phase chip analysis system was used for the detection of granulocyte monocyte colony stimulating factor (GM-CSF), tumor necrosis factor-alpha (TNF-α), and interleukins 1-beta and 6 ([…] and IL-6).
(§8) LUMINEX™ multifunctional liquid-phase chip analyses of GM-CSF, TNF-α, IL-1 and IL-6: The 96-well plate was enclosed with enclosing liquid for 30 minutes. Fluorescent microspheres were added into the 96-well plate after dilution. The standard and the samples to be measured were added, and incubated overnight at 4° C. The next day, the supernatant was discarded and 50 μL GM-CSF, TNF-α, IL-1β and IL-6 antibodies were added to each well. After being rinsed for 4 times, the 96-well plate was placed in a shaking table, which was in ambient temperature, to keep the plate away from light for one hour. […]

Experiment [2] relates to Fusobacterium nucleatum subsp. Polymorphum (F. n) ATCC 10953. As to the kind of experiment: Micro-dilution MIC test, F. n. The experiment is classed as cell-based. The following applies: 37 °C, 18-24 h, unit not given, method gives concentrations in mg/L (ppm). The method, then: as §1, §2, §3, §4, §5, §6
For the next experiment, the system named is TNF-α. As to the kind of experiment: Anti-inflammatory test in KB cells, LUMINEX, TNF-α. The experiment is classed as cell-based, human. The note with it: KB cell supernatant, the larger the value, the stronger the anti-inflammatory ability. On the procedure: as §7, §8
Experiment [3] deals with Streptococcus sanguis (S. sa) ATCC 10556. Description: Micro-dilution MIC test, S. sa. The experiment is classed as cell-based. The following applies: 37 °C, 18-24 h, unit not given, method gives concentrations in mg/L (ppm). The method, then:
as §1, §2, §3, §4, §5, §6

Experiment [4] deals with Streptococcus mutans (S. m) ATCC 25175. Description: Micro-dilution MIC test, S. m. The class given is cell-based. The following applies: 37 °C, 18-24 h, unit not given, method gives concentrations in mg/L (ppm). The method, then:
as §1, §2, §3, §4, §5, §6

The test system of experiment [5] is Actinomyces naeslundii (A. n) ATCC 12104. As to the kind of experiment: Micro-dilution MIC test, A. n. The class given is cell-based. The note with it: 37 °C, 18-24 h, unit not given, method gives concentrations in mg/L (ppm). On the procedure: as §1, §2, §3, §4, §5, §6
In experiment [6] the test system is Actinomyces viscosus (A. v) ATCC 27044. As to the kind of experiment: Micro-dilution MIC test, A. v. The following applies: 37 °C, 18-24 h, unit not given, method gives concentrations in mg/L (ppm). The class given is cell-based. On the procedure: as §1, §2, §3, §4, §5, §6
The next experiment concerns IL-1β. Description: Anti-inflammatory test in KB cells, LUMINEX, IL-1β. The experiment is classed as cell-based, human. The following applies: KB cell supernatant, the larger the value, the stronger the anti-inflammatory ability. On the procedure: as §7, §8
In experiment [7] the test system is Porphyromonas gingivalis (P. g) ATCC 33277. As to the kind of experiment: Micro-dilution MIC test, P. g. The class given is cell-based. The note with it: anaerobic, 37 °C, 18-24 h, unit not given, method gives concentrations in mg/L (ppm). The method, then:
as §1, §2, §3, §4, §5, §6

Another experiment has as its system GM-CSF. As to the kind of experiment: Anti-inflammatory test in KB cells, LUMINEX, GM-CSF. The class given is cell-based, human. The note with it: KB cell supernatant, the larger the value, the stronger the anti-inflammatory ability. The method, then:
as §7, §8

As to `CC1=C[C@H]2c3c(O)cc(-c4cc5ccc(O)cc5o4)cc3O[C@@]3(c4ccc(O)cc4O)Oc4cc(O)ccc4[C@H](C1)[C@@H]23` [Mulberrofuran G, 3aH-Benzo[3,4][2]benzopyrano[1,8-bc][1]-benzopyran-4,11-diol, 8a-(2,4-dihydroxphenyl)-1,8a,13b,13c-tetrahydro-6-(6-hydroxy-2-benzofuranyl)-2-methyl-, (3a,S,8aS,13bS,13cR)-], the “MIC, A. a ATCC 43717” value in experiment [1] is on record as 2.4. In addition, the “anti-inflammatory effect, IL-6” value with IL-6 turned out to be 48%. In experiment [2], the “MIC, F. n ATCC 10953” value stood at 7.8. Also, in the experiment with TNF-α, the “anti-inflammatory effect, TNF-α” value came to 90%. Further, in [3], the “MIC, S. sa ATCC 10556” value stood at 7.8. Further, in experiment [4], the “MIC, S. m ATCC 25175” value amounted to 3.9. For the same molecule, in [5], the “MIC, A. n ATCC 12104” value is 1.9. Further, the “MIC, A. v ATCC 27044” value in experiment [6] is listed as 2.4. Also, in the experiment on IL-1β, the “anti-inflammatory effect, IL-1β” value is listed as 18%. For the same molecule, the “MIC, P. g ATCC 33277” value in [7] was determined as 1.9. Moreover, the “anti-inflammatory effect, GM-CSF” value in the experiment with GM-CSF is on record as 8%.

As for `Oc1cc(Cl)ccc1Oc1ccc(Cl)cc1Cl` [Triclosan, reference compound], the “anti-inflammatory effect, IL-6” value in the experiment with IL-6 was determined as 31%. Besides, the “anti-inflammatory effect, TNF-α” value in the experiment on TNF-α was 81%. In addition, the “anti-inflammatory effect, IL-1β” value in the experiment with IL-1β was determined as 7%.
